# “Also recorded” adds a separate entry of the source.
# What was measured:
# [1] = tested on: Zic1-5, Foxp2, Drd1a, Tac1, Sez6, Penk, Dlx5, Rarb, Meis2, Ddx5, Gpr88, Pde10a, Akap5, Isl1; experiment: QRT-PCR of Zic genes and brain development/neuronal function genes in APP/PS1 mouse brains; type: in vivo; details: Compound C diet vs control diet
# Method: (§1) Male APPΔNLh/ΔNLh×PS1P246 L/246 L knock-in model mice of Alzheimer's disease (abbreviated APP/PS1) were genotyped using standard primers for human APP (Amyloid Precursor Protein) and human PS1 (PSEN1). These APP/PS1 mice starting at the age of 6 months, were fed either a control diet containing normal levels of selenium (0.3 ppm from plant and inorganic selenium salt sources) or an experimental diet containing Compound C (the control diet to which was added 1 ppm Se from Compound C) for 6 months. […]
# Approximately 10 mg brain sample was homogenized with a Qiagen TissueRuptor (Qiagen, Valencia, Calif.) and total RNA was extracted using an RNeasy Mini kit (Qiagen), following the protocol recommended by the company. […] Integrity and purity of isolated RNA was assessed using a NanoDrop ND-1000 spectrophotometer (Thermo Scientific, Wilmington, Del.) and further confirmed with an Agilent 2100 Bioanalyzer System (Agilent Technologies, Santa Clara, Calif.).
# RNA samples were subjected to real-time PCR analysis using the Applied-Bioscience's RT kit and predesigned Taqman probes (Invitrogen), as described previously (Lan et al EMBO J 2003). Three to six samples were analyzed in each group. […]
# [2] = tested on: IMR-32 cells; experiment: Mitochondrial potential assay (Mitotracker Orange); type: cell-based, human; details: 75 ppb and 150 ppb
# Method: The mitochondrial potential per cell in control lentiviral KD IMR-32 or IMR-32 FOXO4 knockdown (KD) cells was determined using the Bio-TeK Synergy HT Multi-Mode fluorescence microplate reader with the following modifications. To improve the attachment of IMR-32 cells to culture dishes, cell culture plates were precoated with 0.1% gelatin (Sigma, St. Louis, Mo.).
# To reduce cell dislodgment, Mitotracker Orange and Hoechst 33342 fluorescent dyes (diluted in culture media) were directly added to each well after control or compound treatments were added. After dye incubation, cell culture media was carefully replaced with 1×PBS buffer for the quantitation analysis of fluorescence on the microplate reader. Eight samples per each treatment were examined for the above analysis, and the experiments were repeated at least five times. Data are presented as mean±sem of eight samples.
# Mitochondrial (MT) dysfunction and dysregulated glucose metabolism are associated with the onset of Alzheimer's Disease (AD). Likewise, as AD progresses, there is strong evidence that Aβ and Tau protein species precipitate further mitochondrial decline. […]
# [3] = tested on: MAPK13; experiment: QRT-PCR of MAPK13 mRNA in control and FOXO4 KD IMR-32 cells; type: cell-based, human; details: 24 hours
# Method: IMR-32 cells were cultured on 12-well plates for 24 hours and then incubated with FOXO4 siRNA lentiviruses (SC-29650V, Santa Cruz) or control siRNA lentiviruses (sc-108080, Santa Cruz) in the presence of Polybrene (5 μg/ml, Santa Cruz) for 24 hours according to the manufacturer's protocol. These lentiviral siRNA-transfected cells were amplified in normal media for 3 days and then incubated with puromycin for 9-14 days to obtain the stable Control KD (stably transfected with the control siRNAs) and FOXO4KD (stably transfected with Foxo4 siRNAs) cells. These control and Foxo4 KD cells were subjected to cell survival, mitochondrial potential and RNA analysis.
# Human IMR-32 cells were seeded on gelatinized 6-well (6.5×10^5 cells/well) or 24-well (1.3×10^5 cells/well) plates. Cells were treated with control (0 ppb) or various compounds for 6 hours or 24 hours. Total RNA from these cells was isolated using Trizol (Invitrogen) according to the manufacturer's protocol, and then incubated with DNase I to remove any potential contaminated genomic DNA. Then RNA samples were subjected to real-time PCR analysis using the Applied-Bioscience's RT kit and predesigned Taqman probes (Invitrogen), as described previously (Lan et al EMBO J 2003). The mRNA levels of UCP1, UCP2, UCP3, SLC25A27 (UCP4), SLC25A14 (UCP5), PSEN1, Nicastrin, GSK3B, MAPK11-14, PPARG, APOE, RCAN1, RCAN1.1, G6PC, INSR, IGF1R and FOXO4 were measured. Three to six samples were analyzed in each treatment group. Data were normalized by Actin B (ACTB) or Glyceraldehyde Phosphate Dehydrogenase (GAPDH) mRNA levels in each sample and are presented as mean±SEM of 3-6 samples.
# Normal control cells and FOXO4KD cells were incubated with two doses of Compound C for 24 hours, and subjected to QRT-PCR analysis of the MAPK11-14 genes. The relative mRNA expression of all four MAPK genes in normal control IMR-32 cells was assessed. […] Data in Compound C-treated control and FOXO4 KD cells were normalized by their levels in control and FOXO4KD cells, respectively. Mean±SEM of indicated number of samples in the bar graphs. […]
# [4] = tested on: Neprilysin; experiment: Western blot of Neprilysin in APP/PS1 mouse brains; type: in vivo; details: APP/PS1 mice, Compound C diet vs control diet
# Method: as §1
# Frozen hemispheres of control- and Compound C-treated APP/PS1 mice were weighed and homogenized in PBS buffer, and then subsequently extracted with RIPA buffer (Sigma) containing complete proteinase and phosphatase inhibitors (Fisher Scientific). Protein levels in the samples were determined by micro-BCA protein analysis according to the manufacturer's protocol. […] Positive signals on the membrane blots were detected using Amersham's enhanced chemiluminescence Western Blotting Prime Detection reagents (GE healthcare Lifescience, Pittsburgh, Pa.). Images of these luminescence signals on the membrane blots were captured using the LI-COR Odyssey Fc Image system (Lincoln, Nebr.). Protein band densities in Western blots were determined using NIH Image J software, and then normalized by Actb levels in each samples to obtain the protein levels.
smiles,measurement,setting,value
"C[Se]C[C@H]1O[C@@H](n2cnc3c(N)ncnc32)C(O)C1O (stereo in doubt) [Compound C, 5′-deoxy-5′-methylselenoadenosine]","expression of Foxp2, Drd1a, Tac1, Sez6, Penk, Dlx5, Rarb, Meis, Ddx5, Gpr88, Pde10a, Isl1 and Akap5 by QRT-PCR",[1],significantly elevated
same,"expression of Zic1, Zic2, Zic3, Zic4 and Zic5 by QRT-PCR",[1],significantly elevated
same,"MT potential (red fluorescence intensities, micrographs)",[2]; 6 hours,remarkably enhanced
same,"MT potential, quantitative analysis normalized by stained cell nuclei",[2]; 6 hours and 24 hours,significant increase; also recorded: enhanced
same,MAPK13 mRNA levels,"[3]; FOXO4KD cells, 75 ppb and 150 ppb",none of the mRNA levels of the four MAPK genes in FOXO4KD cells were significantly altered
same,MAPK13 mRNA levels,"[3]; control KD cells, 75 ppb",trend towards decreased
same,MAPK13 mRNA levels,"[3]; control KD cells, 150 ppb",significantly decreased
same,Neprilysin protein levels in the brains,[4],increased; also recorded: elevated

# Reference: patent US10201558B2, “Compositions of selenoorganic compounds and methods of use thereof” (Alltech, Inc., priority 2014, dated 2019)
